Experiments:
[1] = test system: caspase 3/7 activity of BEAS-2B cells; conditions: 100 nM elastase; 10 μM inhibitor pre-incubation
BEAS-2B cells [2] = test: Cell viability; type: cell-based, human; conditions: for Protection against the antiproliferative effects of elastase: Figure 4C, caspase 3 inhibitor 10 μM pre-incubation
panel of 68 proteases = conditions: 10 μM
BEAS-2B cells [3] = test: Cell detachment and morphology change; type: cell-based, human; conditions: for Elastase-induced cell rounding (morphology change): 10 μM cotreatment, 3 h
[4] = biological target: Human Pancreatic Chymotrypsin (Homo sapiens, UniProt P17538); test: In vitro protease assay, human pancreatic chymotrypsin; type: biochemical
[5] = test system: transcript levels in BEAS-2B cells; conditions: 3 h cotreatment
[6] = test system: IκB degradation and p65 nuclear translocation; conditions: 3 h of cotreatment
sICAM-1 = conditions: 6 h cotreatment, culture supernatant

Sequence of Human Pancreatic Chymotrypsin (P17538 19-263): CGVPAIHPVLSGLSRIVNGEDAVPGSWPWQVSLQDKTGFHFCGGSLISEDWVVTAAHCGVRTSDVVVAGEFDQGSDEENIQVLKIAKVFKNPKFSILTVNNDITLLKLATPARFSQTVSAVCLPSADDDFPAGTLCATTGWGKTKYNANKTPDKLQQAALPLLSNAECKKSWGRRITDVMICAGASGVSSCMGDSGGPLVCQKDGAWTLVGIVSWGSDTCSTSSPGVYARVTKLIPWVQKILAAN

Question: For `COC(=O)CC[C@H](NC(=O)[C@H](CC(=O)OC)NC(=O)OCc1ccccc1)C(=O)N[C@H](C(=O)N[C@@H](CC(=O)OC)C(=O)CF)C(C)C`, which “Effect on elastase-induced increase in caspase activation” value [1] is on record?
Answer: abrogated

Question: What about the “Protection against the antiproliferative effects of elastase” value (BEAS-2B cells [2]) of the same compound?
Answer: partially protected

Question: Which “Inhibition of the serine proteases elastase, chymotrypsin and proteinase K” value (panel of 68 proteases) does the source give for `C/C=C1\NC(=O)[C@@H](NC(=O)[C@H](CCC(N)=O)NC(=O)CCCCC)[C@@H](C)OC(=O)[C@H](C(C)C)NC(=O)[C@H](Cc2ccc(O)cc2)N(C)C(=O)[C@H](Cc2ccccc2)N2C(=O)[C@H](CC[C@H]2O)NC1=O` [Lyngbyastatin 7] here?
Answer: completely inhibiting

Question: `CC(C)(C)C(=O)Oc1ccc(S(=O)(=O)Nc2ccccc2C(=O)NCC(=O)O)cc1` [Sivelestat] was tested. Which “Elastase-induced cell rounding (morphology change)” value (BEAS-2B cells [3]) did it give?
Answer: prevented this effect of elastase

Question: And the “Concentration showing cytoprotective effect against cell detachment” value (BEAS-2B cells [3]; 12 h)?
Answer: 100 µM

Question: What about the IC50 [4] of the same compound?
Answer: > 10 µM

Question: And the “Protection against the antiproliferative effects of elastase” value (BEAS-2B cells [2])?
Answer: partially protected

Question: And the “Concentration required to completely negate elastase-induced cytotoxicity” value (BEAS-2B cells [2]; elastase co-treatment, 24 h)?
Answer: 100 µM

Question: What does the source list for `C/C=C1\NC(=O)[C@@H](NC(=O)[C@@H](NC(=O)[C@@H](COS(=O)(=O)[O-])OC)C(C)C)[C@@H](C)OC(=O)[C@H]([C@H](C)CC)NC(=O)[C@H](Cc2ccccc2)N(C)C(=O)[C@H](Cc2ccccc2)N2C(=O)[C@H](CC[C@H]2O)NC1=O.[Na+]` [Symplostatin 5 (1), Symplostatin 5]?
Answer: Elastase-induced increase in IL1B transcript levels (RT-qPCR) [5]: strongly abrogated; Elastase-induced IκB degradation and p65 nuclear translocation [6]: dose-dependently inhibited; Elastase-induced cell rounding (morphology change) (BEAS-2B cells [3]): prevented this effect of elastase; Concentration that decreased elastase-induced sICAM-1 level (sICAM-1): ≥ 1 µM; Effect on proliferation of BEAS-2B cells (BEAS-2B cells [2]; up to 100 μM, with solvent control or 100 nM elastase, 24 h): did not significantly affect the proliferation

Question: How did the IC50 (BEAS-2B cells [2]; read-out: Antiproliferative IC50 of elastase (MTT), BEAS-2B, 24 h) turn out when “elastase: exogenous elastase used to challenge BEAS-2B cells” was run?
Answer: 0.0775 ± 0.0049 µM
